Experimental data published in patent US20050233984A1, “Composition for preventing or treating degenerative brain diseases comprising a hydrolysate of ginsenosides” (Digital Biotech Co., Ltd., priority 2002, published 2005).

Columns and labels:
[1] = Degree of BBB penetration: pharmacokinetics in blood and brain by LC-mass; format: in vivo, Sprague-Dawley rat; conditions: SD rat; for detection of the peak in the brain tissue sample: 15 minutes after administration of 1 mg/kg of Rg1 or Rb1, FIGS. 10a and 10b
Method: A male Sprague-Dawley rat (weight 250-300 g) was lightly anesthetized with ether and catheterized with a polyethylene tube (PE-50) in the femoral artery and vein. After the rat recovered, a saline solution containing 1 mg/kg of Rg1 or Rb1 was administered into the femoral vein through the intravenous bolus administration. 300 μl blood samples were collected from the rat's femoral artery at 2, 5, 10, 15, 20, 30, 45 and 60 minutes after the administration. Each blood sample was centrifuged to obtain 100 μl of plasma. A plasma sample was prepared as in (2) of step 1 with the plasma. 20 μl of the sample was injected into the LC mass system as in Step 1, and ginsenosides Rg1 and Rb1 and their metabolites PPD and PPT were quantified. The plasma concentrations of ginsenosides and their metabolites were calculated in the forms of weight per plasma (ml) (in case of ginsenosides) or peak size (in case of metabolites).
Immediately after collecting the blood samples, the rats were decapitated and brain tissues were obtained therefrom. The tissues were rinsed with ice-cooled saline, placed in a 15 ml Falcon tube and then weighed precisely. Acetonitrile was added to the tube in an amount twice the weight of the tissue sample, and the sample was homogenized using a tissue homogenizer (Ultra-Turrax T25, JANKE&KUNKEL IKA-Labortechnik). The mixture was centrifuged at 3,000 rpm for 20 minutes. 300 μl of the resulting supernatant was dried in a speed-vac, and 300 μl of acetonitrile was added thereto. 20 μl of the resulting mixture was injected in the LC mass system as in Step 1 to quantify the concentrations of ginsenosides and their metabolites in the brain, and the measured concentrations were represented by weight per gram of the brain tissue or peak size.
Separation and detection conditions for ginsenosides Rg1 and Rb1 were as described in Step 1, and those for metabolites PPD and PPT were as follows:
The transfer rate of the substances into the brain (Kbrain) can be represented by the ratio of the mean concentration of the substance in the brain (Cmean,brain) to the mean plasma concentration (Cmean,plasma) as in Equation 1. [formula]
The mean concentration of a substance can be determined by dividing the area under the concentration-time curve corresponding to time 0 to t by t and, accordingly, the transfer rate of the substance into the brain (Kbrain) can be calculated by Equation 2 shown below. [formula]

beta-secretase = molecular target: T1, beta-secretase (Rattus norvegicus, UniProt P56819); experiment: β-secretase inhibitory activity, fluorometric, B103 cell extract; format: biochemical
T1 construct: the cells were lysed up with MEST buffer; endogenous in cells; host or cells: B103 neuroblastoma cell extract (Triton X-100 lysate)
T1 sequence (P56819 46-501): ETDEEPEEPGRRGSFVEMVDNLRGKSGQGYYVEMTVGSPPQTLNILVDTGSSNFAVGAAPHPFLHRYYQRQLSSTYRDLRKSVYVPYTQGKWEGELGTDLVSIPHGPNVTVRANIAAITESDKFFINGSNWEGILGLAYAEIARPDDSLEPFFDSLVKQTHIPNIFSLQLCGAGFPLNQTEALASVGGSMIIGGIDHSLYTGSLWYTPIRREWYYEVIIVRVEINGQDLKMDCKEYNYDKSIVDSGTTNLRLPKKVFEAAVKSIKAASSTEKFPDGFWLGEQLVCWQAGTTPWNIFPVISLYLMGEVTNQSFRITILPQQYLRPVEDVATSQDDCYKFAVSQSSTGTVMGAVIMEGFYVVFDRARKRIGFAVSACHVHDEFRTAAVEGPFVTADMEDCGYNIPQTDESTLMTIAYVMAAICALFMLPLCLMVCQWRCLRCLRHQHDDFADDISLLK
Method: Peptide H4848 (Bachem), a known suppressor of beta-secretase, was used for a comparative agent and PPT was used as a test compound.
1.5×10^6 cells of neuroblastoma B103 cell line secreting APP were plated on a 100 mm dish with DMEM medium containing 10% FBS, and cultured overnight. Then, the cells were lysed up with MEST buffer (20 mM MES, 0.15 M NaCl, 0.5% Triton X-100, pH 6.0 (Bachem)) to obtain a cell extract.
[…] sodium acetate buffer (pH 4.5), distilled water, beta-secretase inhibitor, 5 μM M2465 (Bachem) as a substrate for beta-secretase and MEST buffer were mixed in order, in amounts as shown in Table 5.
The resulting mixtures were reacted at […] for 2 hours, and then read by a fluorometer with 360 nm excitation and 508 nm emission wavelengths. Enzyme inhibitory activity was determined based on the enzyme activity of the control.

Row | SMILES | detection of the peak in the brain tissue sample [1] | transfer rate into the brain (Kbrain) ([1]; calculated with Equations 1 and 2 (mean brain / mean plasma concentration)) [%] | concentration in the plasma versus the brain tissue (in words) ([1]; metabolite after 1 mg/kg intravenous ginsenoside, FIG. 12) | Enzyme Inhibition (% of control) (beta-secretase; 100 nM PPT) | Enzyme Inhibition (% of control) (beta-secretase; 1 μM PPT) | Enzyme Inhibition (% of control) (beta-secretase; 10 μM PPT) | Enzyme Inhibition (% of control) (beta-secretase; 100 μM PPT) | beta-secretase inhibitory activity versus comparative group (in words) (beta-secretase; comparative group: H4848 100 nM)
1 | CC(C)=CCCC(C)(O)[C@H]1CC[C@]2(C)[C@@H]1[C@H](O)C[C@@H]1[C@@]3(C)CC[C@H](O)C(C)(C)[C@@H]3CC[C@]12C (stereo in doubt) [PPD, protopanaxadiol] | well detected | – | – | – | – | – | – | –
2 | CC(C)=CCC[C@](C)(O)[C@H]1CC[C@]2(C)[C@@H]1[C@H](O)C[C@@H]1[C@@]3(C)CC[C@H](O)C(C)(C)[C@@H]3[C@@H](O)C[C@]12C [PPT, protopanaxatriol] | well detected | 130±46.4 | almost identical | 0 % of control | 0.6 % of control | 3.31 % of control | 18.1 % of control | as good as the comparative group
